Test results published in paper PMC6208908, “Field template-based design and biological evaluation of new sphingosine kinase 1 inhibitors” (Breast Cancer Research and Treatment, 2018).
Entries after “also recorded” stand apart in the source; their conditions may differ.

Tests used:
SK1 protein = SK1 protein level (Figure S9); format: cell-based
recombinant SK1 = recombinant SK1 (Homo sapiens, UniProt Q9NYA1); experiment: SK1 activity assay, cell-free (recombinant SK1 extract, radiolabelling); format: biochemical
Chain of recombinant SK1 (Q9NYA1 whole entry): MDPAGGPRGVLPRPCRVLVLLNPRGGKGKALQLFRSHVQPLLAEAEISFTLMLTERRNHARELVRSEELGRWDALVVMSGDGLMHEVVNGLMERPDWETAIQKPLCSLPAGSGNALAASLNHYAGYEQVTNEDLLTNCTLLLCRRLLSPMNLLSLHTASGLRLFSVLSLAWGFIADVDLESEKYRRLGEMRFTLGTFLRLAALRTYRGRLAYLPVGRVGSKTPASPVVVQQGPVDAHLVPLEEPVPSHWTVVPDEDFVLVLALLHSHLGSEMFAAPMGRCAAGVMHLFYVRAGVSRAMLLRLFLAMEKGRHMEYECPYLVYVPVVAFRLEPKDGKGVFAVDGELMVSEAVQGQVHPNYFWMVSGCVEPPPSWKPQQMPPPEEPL
Method: (§1) SK assay was performed using radiolabeling as previously described, in conditions favouring SK1 or SK2 activity as required.
The synthesised compounds were then screened for SK1 inhibition. Compounds SK-A to SK-F and SKI-II (commercial inhibitor of SK used as positive control with reported IC50 0.5 µM [14]) at 1 µM were incubated in the presence of recombinant SK1 extract (in excess), 1 µM of ATP, and exogenous 1 µM sphingosine for 1 h followed by measurement of SK1 activity.
Fig. 2 Inhibition of sphingosine kinase 1 in cell-free extract and in vitro. a 1 µM of compounds SK-A to SK-F and SKI-II (commercial inhibitor of SK used as a positive control) were incubated in the presence of recombinant SK1 extract (in excess), 1 µM of ATP, and 1 µM exogenous sphingosine for 1 h. b MDA-MB-231 cells were incubated with 1 µM of compounds SK-A to SK-F and SKI-II for 6 h. SK1 activity was measured as described in materials and methods. Columns, means of three independent experiments normalised to vehicle; bars, SEM. (ns, non-significant; *p < 0.05; **p < 0.01)
(§2) SK1 activity was determined in the presence of triton X-100 and SK2 activity was measured in the presence of high salt concentrations, conditions that favour SK1 and SK2, respectively. […] Km for SK1 was 6.97 ± 1.20 µM, Vmax 98 ± 4 µM/min/mg protein and Ki for SK-F 0.46 ± 0.1 µM. […] Some SK inhibitors such as SKI-II were previously shown to induce proteasomal degradation of SK1 [48, 49].

recombinant SK2 = molecular target: T1, recombinant SK2 (Homo sapiens, UniProt Q9NRA0); experiment: SK2 activity assay with recombinant SK2 (high salt), Lineweaver-Burk; format: biochemical; details: Lineweaver-Burk plot, high salt (Figure S8B)
T1 sequence (Q9NRA0 1-654): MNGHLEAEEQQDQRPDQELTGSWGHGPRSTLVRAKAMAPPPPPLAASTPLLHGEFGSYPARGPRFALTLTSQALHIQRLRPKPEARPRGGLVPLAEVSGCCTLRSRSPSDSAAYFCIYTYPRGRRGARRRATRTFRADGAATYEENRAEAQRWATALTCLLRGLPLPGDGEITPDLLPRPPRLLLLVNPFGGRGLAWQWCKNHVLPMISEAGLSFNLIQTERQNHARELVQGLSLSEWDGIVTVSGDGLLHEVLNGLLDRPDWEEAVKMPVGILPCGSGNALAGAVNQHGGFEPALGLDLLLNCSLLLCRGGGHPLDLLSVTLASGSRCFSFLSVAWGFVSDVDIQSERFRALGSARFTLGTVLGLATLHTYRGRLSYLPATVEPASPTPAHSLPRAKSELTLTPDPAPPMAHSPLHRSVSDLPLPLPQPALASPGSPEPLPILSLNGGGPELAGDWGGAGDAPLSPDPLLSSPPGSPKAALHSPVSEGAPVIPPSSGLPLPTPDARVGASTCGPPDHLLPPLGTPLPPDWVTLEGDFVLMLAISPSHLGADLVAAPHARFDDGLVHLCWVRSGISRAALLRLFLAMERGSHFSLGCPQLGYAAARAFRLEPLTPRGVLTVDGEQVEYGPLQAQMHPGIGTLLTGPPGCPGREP
Method: as §1, §2

[1] = Liver function tests in treated mice; format: in vivo, BALB/c nude mice; details: 5 mg/kg each drug i.p. twice a week for 2 weeks, compared with DTX
Method: Breast cancer allografts were established in 6–8-week-old BALB/c nude mice by injection of 10^6 4T1 cells into their mammary pad. Two weeks after implantation, mice were randomised into treatment groups (n = 6/group) and treated twice a week for 2 weeks with intraperitoneal injections of dimethyl sulfoxide (DMSO), 5 mg/kg DTX, 5 mg/kg SK-F, 5 mg/kg DTX + 5 mg/kg SK-F. One day after the last treatment, all mice were euthanized and blood was collected. Tumour long and short radii were measured using calipers and tumour volume (v) was calculated using the formula v = 4/3 πab^2 (a – long radius, b – short radius). Mice and individual organs were weighed and primary tumours were then processed for analysis of SK1 activity as described above. Full blood count and liver function test analysis was done in the Hammersmith hospital biochemical lab.
Fig. 6 Liver function tests of mice treated with SK-F and docetaxel (DTX). Breast cancer allografts were established in BALB/c nude mice by injection of 4T1 cells into their mammary pad. Two weeks after implantation, mice were randomised into treatment groups (n = 6/group) and treated twice a week for two weeks with intraperitoneal injections of: DMSO, 5 mg/kg DTX, 5 mg/kg SK-F, 5 mg/kg DTX + 5 mg/kg SK-F. a Alanine transaminases (ALT). b Bilirubin. c Aspartate transaminase (AST). d Albumin. e Alkaline phosphatase (ALP). f Total protein. Columns, mean of n = 6 animals normalised to control; bars, SEM. (*p < 0.05; **p < 0.01)

SK1 mRNA = SK1 mRNA expression by qRT-PCR in MDA-MB-231 cells; format: cell-based, human; details: 1, 2, 5 and 10 µM, 24 h
Method: Isolation of total RNA from MDA-MB-231 cells was performed using the RNeasy Mini kit (Qiagen, Valencia, CA, USA) as per manufacturer’s instructions. RNA quantity and purity were measured using a NanoDrop ND-1000 Spectrophotometer (Thermo Fisher Scientific, Loughborough, UK). Reverse transcription was performed using precision nanoScript™ reverse transcription kit (PrimerDesign Ltd, Southampton, UK). qRT-PCR was done as already described. Ct values were exported and analysed using qbase software (Biogazelle NV, Zwijnaarde, Belgium).
Fig. 3 Effect of compounds SK-A to SK-F on SK1 mRNA levels. MDA-MB-231 cells were incubated with 1, 2, 5 and 10 µM of compounds SK-A to SK-F for 24 h. SK1 mRNA expression was measured by qRT-PCR. Columns, means of three independent experiments normalised to control; bars, SEM. (*p < 0.05; **p < 0.01)

## CCCCCCCCc1ccc(NC(=O)c2ccccc2)cc1 [SK-F]
SK1 protein
  effect on SK1 protein: did not induce any change
Recombinant SK1; 1 µM compound, recombinant SK1 extract in excess, 1 µM ATP, 1 µM sphingosine, 1 h
  inhibition of SK1 activity in cell-free settings: most potent inhibitor of SK1 activity; also recorded: statistically significant inhibition
Recombinant SK1; Figure S7, read-out: IC50 for purified enzyme (SK1 activity dose response)
  IC50: 920 nM
Recombinant SK1; Lineweaver-Burk plot, increasing sphingosine (Figure S8A)
  mode of SK1 inhibition: competitive inhibitor
Recombinant SK1; recombinant SK1, increasing sphingosine, triton X-100, Lineweaver-Burk
  Ki: 460 ± 100 nM
Recombinant SK2
  inhibition of SK2: no inhibition
[1]
  liver function test toxicity profile: milder toxicity profile
SK1 mRNA
  effect on SK1 mRNA expression: did not elicit any changes
